Measured values taken from patent US20140024663A1, “ATB(0,+) AMINO ACID TRANSPORTER AS A DRUG TARGET FOR TREATMENT OF ESTROGEN RECEPTOR-POSITIVE BREAST CANCER” (GEORGIA HEALTH SCIENCES UNIVERSITY RESEARCH INSTITUTE, INC., priority 2012, published 2014).

Key:
Assay type in all cases: cell-based, human
BT474 cells = test: SLC6A14 and ER mRNA by RT-PCR after estradiol/antiestrogen treatment; settings: 24 h
Method: (§1) FIGS. 2A-2C. Regulation of SLC6A14 expression by estrogen/ER. In FIG. 2A, ZR75.1 and BT474 cells were cultured for 5-6 passages in control medium (10% fetal bovine serum with phenol red) and phenol red-free medium (10% or 5% charcoal-stripped fetal bovine serum), and then the levels of ERa mRNA and SLC6A14 mRNA were determined by RT-PCR (P1, P2, P3, P4, P5, and P6 refer to passage numbers). In FIG. 2B, BT474 cells were treated with estradiol (10 nM) in the presence or absence of antiestrogens (1 μM) for 24 h, and then used for RT-PCR analysis of SLC6A14 mRNA and ERa mRNA (E2, estradiol; TAM, tamoxifen; 4-OH TAM, 4-hydroxytamoxifen; ICI 182780, FULVESTRANT™). […] Following the treatment, the reporter activity was measured. […]
(§2) Analysis of SLC6A14 as an estrogen/ER target. The influence of estrogen on SLC6A14 expression was assessed in ER-positive breast cancer cells (ZR75.1 and BT474) by culturing them for several passages in the absence of phenol red, and then monitoring the levels of SLC6A14 mRNA. […] Luciferase activity was measured in cell lysates using Luciferase Assay Reagent (Promega). β-galactosidase activity in the same cell lysates was used for normalization of the promoter activity for differences in transfection efficiency.

MCF7 cells = test: SLC6A14 mRNA by RT-PCR in phenol red-free medium with or without estradiol; settings: estradiol 10 nM, 24 h, versus absence of estradiol
Method: FIG. 11. Estrogen-dependent suppression of the efficacy of α-MT to induce ASNS and CHOP expression in MCF7 cells. MCF7 cells were cultured in a phenol red-free medium in the absence or presence of estradiol (E2, 10 nM) for 24 h and then treated without or with α-MT (2.5 mM, 24 h). The cells were then used for analysis of SLC6A14, asparagine synthetase (ASNS), and CHOP mRNA levels by RT-PCR. Hypoxanthine/guanine phosphoribosyltransferase-1 (HPRT1) mRNA levels were used as an internal control.
RT-PCR. Total RNA was isolated using TRIZOL™ (Invitrogen). 2 μg of RNA was reverse transcribed using the GeneAmp PCR System (Applied Biosystems, Branchburg, N.J.). PCR reaction was performed under optimal conditions specific for each of the primer pairs. GAPDH (glyceraldehyde-3-phosphate dehydrogenase) or HPRT1 (hypoxanthine/guanine phosphoribosyl transferase-1) were used as internal controls. PCR products were size-fractionated on agarose gel, stained with ethidium bromide and imaged using Alpha Imager (Santa Clara, Calif.). Densitometry was performed on PCR bands and normalized to the internal control. Normalized values were used to compare mRNA levels of target genes. Primers used for PCR were as follows.

[1] = test system: SLC6A14 promoter in BT474 cells; test: SLC6A14-promoter luciferase reporter assay; settings: BT474, estradiol 10 nM, normalized with β-galactosidase activity
Method: as §1, §2

SMILES: C[C@]12CC[C@@H]3c4ccc(O)cc4CC[C@H]3[C@@H]1CC[C@@H]2O [estradiol]
- SLC6A14 mRNA levels (BT474 cells; BT474, estradiol 10 nM): increased
- expression of ER (BT474 cells; BT474, estradiol): did not have any noticeable effect
- expression of SLC6A14 (MCF7 cells): higher
- enhancement of SLC6A14-promoter (luciferase) activity [1]: 6 fold
